Legend:
[1] = system: formaldehyde induced nociceptive behaviour; assay: Formaldehyde test in mice, second (late) phase; format: in vivo, mouse; conditions: mouse, read-out: inhibition formaldehyde test (n = 10); for inhibition in vivo at 0.3 mg/kg: 0.3 mg/kg body weight po; for inhibition in vivo at 1 mg/kg: 1 mg/kg body weight po
[2] = target: T1, vanilloid receptor 1 (VR1/TRPV1) of the rat species (Rattus norvegicus, UniProt O35433); assay: FLIPR Ca2+ influx assay on rat dorsal root ganglia cells (pharmacological method I); format: cell-based; conditions: for Ki: table 4, capsaicin, read-out: Ki (rat) Cap.
T1 construct: The spinal column is removed from decapitated rats; from tissue; host or cells: primary cells dissociated from rat dorsal root ganglia
T1 sequence (O35433 whole entry): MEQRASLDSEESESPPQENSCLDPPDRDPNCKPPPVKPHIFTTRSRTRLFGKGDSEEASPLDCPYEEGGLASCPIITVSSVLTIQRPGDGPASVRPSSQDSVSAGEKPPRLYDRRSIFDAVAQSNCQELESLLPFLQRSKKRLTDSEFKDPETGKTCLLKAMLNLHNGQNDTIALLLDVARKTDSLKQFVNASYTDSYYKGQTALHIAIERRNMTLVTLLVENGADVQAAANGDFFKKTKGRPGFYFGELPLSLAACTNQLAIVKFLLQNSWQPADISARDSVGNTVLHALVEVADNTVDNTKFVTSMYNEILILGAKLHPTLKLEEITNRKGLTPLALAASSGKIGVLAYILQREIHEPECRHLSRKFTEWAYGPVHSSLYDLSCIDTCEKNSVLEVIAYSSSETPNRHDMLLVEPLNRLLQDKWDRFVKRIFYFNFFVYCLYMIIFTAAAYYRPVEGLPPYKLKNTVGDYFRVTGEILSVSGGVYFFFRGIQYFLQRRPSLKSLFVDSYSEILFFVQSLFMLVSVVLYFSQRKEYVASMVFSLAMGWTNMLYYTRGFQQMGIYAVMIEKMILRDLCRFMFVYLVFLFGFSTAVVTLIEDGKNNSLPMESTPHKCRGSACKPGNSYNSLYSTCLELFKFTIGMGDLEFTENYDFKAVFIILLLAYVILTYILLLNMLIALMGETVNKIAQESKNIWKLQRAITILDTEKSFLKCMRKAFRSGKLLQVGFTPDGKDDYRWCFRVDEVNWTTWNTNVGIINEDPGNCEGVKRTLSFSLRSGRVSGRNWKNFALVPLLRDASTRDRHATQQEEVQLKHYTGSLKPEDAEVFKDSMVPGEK
Outline: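 Primary rat dorsal root ganglion cells loaded with 2 μM Fluo-4, Ca2+ influx read on FLIPR as peak fluorescence. Triplicates, at least 3 independent experiments.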

vanilloid receptor (VR1) = target: T2, vanilloid receptor (VR1) (Homo sapiens, UniProt Q8NER1); assay: FLIPR Ca2+ influx assay on CHO K1 cells transfected with the VR1 gene (pharmacological method II); format: cell-based; conditions: table 4; capsaicin; read-out: Ki (human) Cap.
T2 construct: expressed in transfected cells; host or cells: CHO K1 cells (ECACC), stably transfected
T2 sequence (Q8NER1 whole entry): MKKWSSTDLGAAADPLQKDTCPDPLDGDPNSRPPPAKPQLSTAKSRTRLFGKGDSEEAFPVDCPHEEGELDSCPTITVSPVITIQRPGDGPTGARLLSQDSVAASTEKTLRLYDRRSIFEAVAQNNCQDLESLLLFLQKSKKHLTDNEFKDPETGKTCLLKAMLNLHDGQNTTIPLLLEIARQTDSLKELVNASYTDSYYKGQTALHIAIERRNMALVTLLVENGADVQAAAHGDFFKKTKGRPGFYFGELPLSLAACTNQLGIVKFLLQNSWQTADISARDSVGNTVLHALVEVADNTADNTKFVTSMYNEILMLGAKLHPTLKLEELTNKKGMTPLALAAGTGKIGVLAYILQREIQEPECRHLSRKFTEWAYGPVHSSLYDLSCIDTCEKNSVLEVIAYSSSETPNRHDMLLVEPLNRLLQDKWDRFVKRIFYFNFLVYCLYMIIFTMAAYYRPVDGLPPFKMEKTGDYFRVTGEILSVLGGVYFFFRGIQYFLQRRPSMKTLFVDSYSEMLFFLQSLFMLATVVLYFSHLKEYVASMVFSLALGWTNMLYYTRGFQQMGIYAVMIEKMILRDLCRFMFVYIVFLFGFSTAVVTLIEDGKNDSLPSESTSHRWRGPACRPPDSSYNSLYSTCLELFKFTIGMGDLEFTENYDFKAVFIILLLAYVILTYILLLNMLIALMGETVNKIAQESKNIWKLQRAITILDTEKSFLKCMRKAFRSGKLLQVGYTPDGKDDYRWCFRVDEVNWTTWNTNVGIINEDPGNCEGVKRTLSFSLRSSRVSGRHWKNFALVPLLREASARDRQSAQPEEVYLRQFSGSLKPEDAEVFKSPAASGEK

[3] = system: capsaicin induced hypothermie; assay: Hypothermie assay in the mouse (capsaicin induced hypothermie); format: in vivo; conditions: mouse, read-out: inhibition hypothermie (n = 5); for inhibition in vivo at 0.3 mg/kg: 0.3 mg/kg body weight po
Experimental: V. Hypothermie Assay an der Maus
Male NMRI mice (weight 25-35 gram, supplier IFFA CREDO, Bruxelles, Belgium) are used in the hypothermie assay. The animals are kept under standardized conditions: light/darkness interval (6:00 to 18:00 light; 18:00 to 6:00 Uhr darkness), room temperature 19-22° C., relative humidity 35-70%, 15 times per hour change of compartment air, airflow <0.2 m/sec. The animals were fed on a standardized diet (ssniff diet, ssniff Spezialdiäten GmbH, Soest, Germany) and tap water. Water and diet were detracted during the experiment. All animals were used once in the experiment. The animals were allowed to adapt to the experimental conditions for at least 5 days.
The acute application of capsaicin (VR-1 agonist) leads to a decrease of the core body temperature in rat and mice via stimulation of heat sensors. Only compounds which act as specific VR-1-receptor antagonists can antagonize the capsaicin induced hypothermie. In contrast, morphine induced hypothermie is not antagonized by VR-1 antagonists. Thus, this experiment is suitable for the determination of compounds that act as VR1-antagonists via their effect on the core body temperature.
For the determination of the core body temperature a digital thermometer was used (Thermalert TH-5, physitemp, Clifton N.J., USA). The measuring head was inserted into the rectum.
The individual basis value is determined by measuring the body temperature twice in an interval of about half an hour. […] […] The test compound is given 10 min (i.v.) or 15 min (p.o.), respectively, before application of capsaicin. The body temperature is determined 7.5/15 and 30 min after application of capsaicin (i.v.+i.p.) or 15/30/60/90/120 min after application of capsaicin (p.o.+i.p.), respectively. In addition, another group of mice is only given the test compound or a vehicle control.
The measuring points are given as average values±S.E.M. of the absolute values. The antagonistic effect is given in percent of inhibition of capsaicin induced hypothermie.

VR1/TRPV1 receptor = VR1/TRPV1 receptor (Homo sapiens, UniProt Q8NER1); assay: IC50 (human) after pH stimulus; format: cell-based; conditions: for IC50: table 4
VR1/TRPV1 receptor, sequence (Q8NER1 whole entry): as above

| Ki (vanilloid receptor (VR1)) | Ki [2] | IC50 (VR1/TRPV1 receptor) | SMILES | inhibition in vivo at 1 mg/kg [1] | inhibition in vivo at 0.3 mg/kg [3] | further results |
| --- | --- | --- | --- | --- | --- | --- |
|  |  |  | CC(C(=O)NCc1ccc(C(F)(F)F)cc1N1CCCC1)c1ccc(NS(C)(=O)=O)c(F)c1 (stereo not drawn) [Compound 34] |  |  | inhibition in vivo at 0.3 mg/kg [1]: 51% |
|  |  |  | CC(C(=O)NCc1ccc(C(F)(F)F)nc1-c1cccs1)c1ccc(NS(C)(=O)=O)c(F)c1 (stereo not drawn) [Compound 88] | 16% |  |  |
|  |  |  | CC(C(=O)NCc1ccc(C(F)(F)F)nc1NC1CCCCC1)c1ccc(NS(C)(=O)=O)c(F)c1 (stereo not drawn) [Compound 90] | 37% |  |  |
|  |  |  | CC(C(=O)NCc1ccc(C(F)(F)F)nc1N1CCCC1)c1ccc(NS(C)(=O)=O)c(Br)c1 (stereo not drawn) [Compound 103] | 50% |  |  |
|  |  |  | CCCCOc1cc(C(C)(C)C)ccc1CNC(=O)C(C)c1ccc(NS(C)(=O)=O)c(F)c1 (stereo not drawn) [Compound 108] | 24% |  |  |
|  |  |  | CC(C(=O)NCc1ccc(C(F)(F)F)nc1-c1ccc(C(C)(C)C)cc1)c1ccc(NS(C)(=O)=O)c(F)c1 (stereo not drawn) [Compound 117] | 41% |  |  |
|  |  |  | CC(C(=O)NCc1ccc(C(F)(F)F)nc1SC1CCCCC1)c1ccc(NS(C)(=O)=O)c(F)c1 (stereo not drawn) [Compound 126] |  |  | inhibition in vivo at 0.3 mg/kg [1]: 69% |
|  |  |  | Cc1cc(C(C)C(=O)NCc2ccc(C(F)(F)F)nc2N2CCCCC2)ccc1NS(C)(=O)=O (stereo not drawn) [Compound 127] | 25% |  |  |
|  |  |  | CC(C(=S)NCc1ccc(C(F)(F)F)nc1N1CCCC1)c1ccc(NS(C)(=O)=O)c(F)c1 (stereo not drawn) [Compound 129] | 3% |  |  |
|  |  |  | CC(C(=S)NCc1ccc(C(F)(F)F)nc1-c1ccc(F)cc1)c1ccc(NS(C)(=O)=O)c(F)c1 (stereo not drawn) [Compound 130] | 55% |  |  |
|  |  |  | CC(C(=O)NCc1ccc(C(F)(F)F)nc1-c1cccc(F)c1)c1ccc(NS(C)(=O)=O)c(F)c1 (stereo not drawn) [Compound 148] | 46% |  |  |
|  |  |  | COC1CCN(c2nc(C(F)(F)F)ccc2CNC(=O)C(C)c2ccc(NS(C)(=O)=O)c(F)c2)CC1 (stereo not drawn) [Compound 159] | 14% |  |  |
|  |  |  | CCCCOC1CCN(c2nc(C(F)(F)F)ccc2CNC(=O)C(C)c2ccc(NS(C)(=O)=O)c(F)c2)CC1 (stereo not drawn) [Compound 160] | 14% |  |  |
|  |  |  | CC(C(=O)NCc1ccc(C(F)(F)Cl)nc1OC1CCCC1)c1ccc(NS(C)(=O)=O)c(F)c1 (stereo not drawn) [Compound 166] | 72% |  |  |
|  |  |  | CCCCN(C)c1nc(C(F)(F)F)ccc1CNC(=O)C(C)c1ccc(NS(C)(=O)=O)c(F)c1 (stereo not drawn) [Compound 167] |  |  | inhibition in vivo at 0.3 mg/kg [1]: 56% |
|  |  |  | CCC1CCC(Oc2nc(C(F)(F)F)ccc2CNC(=O)C(C)c2ccc(NS(C)(=O)=O)c(F)c2)CC1 (stereo not drawn) [Compound 171] | 46% |  |  |

| Ki (vanilloid receptor (VR1)) | Ki [2] | IC50 (VR1/TRPV1 receptor) | SMILES | inhibition in vivo at 1 mg/kg [1] | inhibition in vivo at 0.3 mg/kg [3] | further results |
| --- | --- | --- | --- | --- | --- | --- |
|  |  |  | CC(C(=O)NCc1ccc(C(F)(F)F)cc1N1CCCCCC1)c1ccc(NS(C)(=O)=O)c(F)c1 (stereo not drawn) [Compound 174] | 49% |  |  |
|  |  |  | CC(C(=O)NCc1ccc(C(F)(F)F)nc1OCc1ccncc1)c1ccc(NS(C)(=O)=O)c(F)c1 (stereo not drawn) [Compound 177] | 24% |  | inhibition at 0.1 µM ([2]; read-out: inhibition in percent, Ki (rat) Cap.): 9% |
|  |  |  | CC(C(=O)NCc1ccc(C(F)(F)F)nc1OCCc1ccccc1)c1ccc(NS(C)(=O)=O)c(F)c1 (stereo not drawn) [Compound 178] | 28% |  |  |
|  |  |  | CC(C(=O)NCc1ccc(C(F)(F)F)nc1N1CCN(c2ccc(F)cc2)CC1)c1ccc(NS(C)(=O)=O)c(F)c1 (stereo not drawn) [Compound 179] | 22% |  |  |
|  |  |  | CC(C(=O)NCc1ccc(C(F)(F)Cl)nc1OCc1ccccn1)c1ccc(NS(C)(=O)=O)c(F)c1 (stereo not drawn) [Compound 182] | 8% |  |  |
| 0.3 nM | 0.4 nM | 5.9 nM | CC1CCN(c2nc(C(F)(F)Cl)ccc2CNC(=O)C(C)c2ccc(NS(C)(=O)=O)c(F)c2)CC1 (stereo not drawn) [Example 131] |  | 26% |  |
| 0.5 nM | 1.2 nM | 19.8 nM | CC(C(=O)NCc1ccc(C(F)(F)F)nc1N1CCC(F)CC1)c1ccc(NS(C)(=O)=O)c(F)c1 (stereo not drawn) [Example 138, 2-(3-fluoro-4-methylsulfonamido-phenyl)-N-(4-fluoro-6′-trifluoromethyl-3,4,5,6-tetrahydro-2H-[1,2′]bipyridinyl-3′-ylmethyl)-propionamide] |  | 0% |  |
| 0.3 nM | 0.9 nM | 12.1 nM | CC(C(=O)NCc1ccc(C(F)(F)F)nc1N1CC=CCC1)c1ccc(NS(C)(=O)=O)c(F)c1 (stereo not drawn) [Example 139, 2-(3-fluoro-4-methylsulfonamido-phenyl)-N-(6′-trifluoromethyl-3,6-dihydro-2H-[1,2′]bipyridinyl-3′-ylmethyl)-propionamide] |  | 43% |  |
| 0.7 nM | 1 nM | 10.4 nM | CC(C(=O)NCc1ccc(C(F)(F)F)nc1-c1ccc(Cl)cc1)c1ccc(NS(C)(=O)=O)c(F)c1 (stereo not drawn) [Example 147, N-[2-(4-chloro-phenyl)-6-trifluoromethyl-pyridin-3-ylmethyl]-2-(3-fluoro-4-methylsulfonamido-phenyl)-propionamide] |  | 3% |  |
| 8.1 nM | 1.7 nM | 534 nM | CC(C(=O)NCc1ccc(C(C)(C)C)cc1OC1CCCCC1)c1ccc(NS(C)(=O)=O)c(F)c1 (stereo not drawn) [Example 154, N-(4-tert-butyl-2-cyclohexyloxy-benzyl)-2-(3-fluoro-4-methylsulfonamido-phenyl)-propionamide] |  | 12% |  |
| 5 nM | 5 nM | 192 nM | CC(C(=O)NCc1ccc(C(F)(F)F)nc1N1Cc2ccccc2C1)c1ccc(NS(C)(=O)=O)c(F)c1 (stereo not drawn) [Example 188, N-[2-(1,3-dihydro-isoindol-2-yl)-6-trifluoromethyl-pyridin-3-ylmethyl]-2-(3-fluoro-4-methylsulfonamido-phenyl)-propionamide] |  | 0% |  |
| 4.1 nM | 3.8 nM |  | CC(C(=O)NCc1ccc(C(F)(F)F)nc1N1CCN(c2ncccc2Cl)CC1C)c1ccc(NS(C)(=O)=O)c(F)c1 (stereo not drawn) [Example 194, N-{2-[4-(3-chloro-pyridin-2-yl)-2-methyl-piperazin-1-yl]-6-trifluoromethyl-pyridin-3-ylmethyl}-2-(3-fluoro-4-methylsulfonamido-phenyl)-propionamide] |  | 14% | inhibition at 1 µM (VR1/TRPV1 receptor; @ 1 μM, ne = no effect, read-out: inhibition in percent, IC50 (human) after pH stimulus): 21% |
| 0.9 nM | 0.2 nM | 34.9 nM | CC(C(=O)NCc1ccc(C(F)(F)F)cc1OCc1ccccc1)c1ccc(NS(C)(=O)=O)c(F)c1 (stereo not drawn) [Example 209, N-(2-benzyloxy-4-trifluoromethyl-benzyl)-2-(3-fluoro-4-methylsulfonamido-phenyl)-propionamide] |  |  | inhibition in vivo at 3 mg/kg ([3]; 3 mg/kg body weight po): 46% |
| 2 nM | 0.5 nM | 64.7 nM | CC(C(=O)NCc1ccc(C(F)(F)F)cc1N1CCN(c2ccccc2)CC1)c1ccc(NS(C)(=O)=O)c(F)c1 (stereo not drawn) [Example 216] |  | 4% |  |
| 2.5 nM | 1.9 nM | 44.5 nM | COc1ccc(N2CCN(c3nc(C(F)(F)F)ccc3CNC(=O)C(C)c3ccc(NS(C)(=O)=O)c(F)c3)CC2)cc1 (stereo not drawn) [Example 221, 2-(3-fluoro-4-methylsulfonamido-phenyl)-N-{2-[4-(4-methoxy-phenyl)-piperazin-1-yl]-6-trifluoromethyl-pyridin-3-ylmethyl}-propionamide] |  | 18% |  |
| 0.7 nM | 0.5 nM | 27.3 nM | CCCCCOc1nc(C(F)(F)F)ccc1CNC(=O)C(C)c1ccc(NS(C)(=O)=O)c(F)c1 (stereo not drawn) [Example 225, 2-(3-fluoro-4-methylsulfonamido-phenyl)-N-(2-pentyloxy-6-trifluoromethyl-pyridin-3-ylmethyl)-propionamide] |  | 20% |  |

Reference: patent publication US8710233B2 (Gruenenthal GmbH, priority 2005, dated 2014)
